Data reported in patent US10258607B2, “Method of increasing intratumoral pHe and reducing acid-mediated invasion” (H. Lee Moffitt Cancer Center and Research Institute, Inc., priority 2009, dated 2019).
Entries after “also recorded” stand apart in the source; their conditions may differ. One block for each compound: values may come before it.

Columns and labels:
[1] = system: luciferase-expressing PC3M prostate cancer cells; experiment: In vivo experimental lung metastasis model, IEPA in drinking water; set-up: species or system mice
Procedure: FIG. 10 illustrates (A) the chemical structure of IEPA and (B) an experimental timetable. For the experiment mice (n=10) were started on 200 mM IEPA, or tap water (n=10) at time 0. Four days later 5×10^6 PC3M cells were injected intravenously in to the mice. Images were acquired weekly, and animal were euthanized at week 6 post-injections
Mice were imaged in a ventral view weekly for 6 weeks using the in vivo Imaging System (IVIS, Xenogen).
A region of interest (ROI) was manually selected over the signal intensity. The area of the ROI was kept constant and the intensity was recorded as maximum [photons/sec].
In these experiments, 10 mice were provided with ad libidum 200 mM of 2-imidazole-1-yl-3-ethoxycarbonylpropionic acid (IEPA) in their drinking water and 10 mice were maintained on water.
Four days after initiation of therapy, all animals were injected with luciferase-expressing PC3M prostate cancer cells. […] NMR in biomedicine 2002; 15(2):114-9; van Sluis R, et al., In vivo imaging of extracellular pH using 1H MRSI. Magn Reson Med 1999; 41(4):743-50].

[2] = high doses; cited from earlier work
[3] = system: spontaneous and experimental metastases; details: chronic consumption of sodium bicarbonate solution; cited from earlier work
[4] = 25-50 grams daily, greater than 1 year, patients with renal tubular acidosis and sickle cell anemia; cited from earlier work
[5] = system: widely metastatic renal cancer; experiment: Case report: patient with metastatic renal cancer
[6] = cited from earlier work
[7] = self-administered 40 grams of NaHCO3 daily, scans Dec. 5, 2007 and Apr. 18, 2008

- animal weight / weight gain and grooming behavior vs controls ([1]; 200 mM IEPA in drinking water): not different from controls
SMILES: CCOC(=O)CC(C(=O)O)n1ccnc1 (stereo not drawn) [IEPA, 2-imidazole-1-yl-3-ethoxycarbonylpropionic acid]
- lung metastases compared to control group ([1]; 200 mM IEPA in drinking water from 4 days before i.v. injection of 5×10^6 PC3M cells, weekly imaging for 6 weeks, p<0.02): significantly fewer lung metastases; also recorded: significantly inhibits lung metastasis
- mean in vivo photon count, whole animal and lungs, vs tap water group ([1]; 200 mM IEPA in drinking water, p<0.002 Wilcoxon two sample test): significantly different
- toxicity in vivo [2]: non-toxic at high doses

SMILES: O=C([O-])O.[Na+] [NaHCO3, sodium bicarbonate]
- spontaneous and experimental metastases [3]: inhibited
- adverse effects on chronic administration [4]: without adverse affects
- tolerability ([5]; "very high" bicarbonate administration for nearly 1 year): without complication
- duration of stable tumor ([5]; person, approximately 60 grams of bicarbonate in water daily with vitamins, supplements, no conventional therapy): 10 months
- central necrosis of tumors on follow-up CT scan [5, 7]: no longer present
- liver lesions on CT scans [5, 7]: some of the liver lesions have increased in size, some have decreased in size, and some have remained stable

SMILES: C[N+](C)(C)CCN [cholamine chloride]
- pKa [6]: 7.1

SMILES: CCN(CC)CCNC(=O)c1c(C)[nH]c(/C=C2\C(=O)Nc3ccc(F)cc32)c1C [Sutent]
- tumor response ([5]; first line treatment of liver metastatic disease): the tumor progressed

SMILES: NCCCC[C@H](N)C(=O)O [free-base lysine, L-lysine]
- pKa1 ([6]; L-lysine with three pKa's): 2.20
- pKa2 ([6]; L-lysine with three pKa's): 8.90
- pKa3 ([6]; L-lysine with three pKa's): 10.28
